This note sets out measurements from US10513521B2, “Compositions and methods for inhibiting BMP” (The Brigham and Women's Hospital, Inc., priority 2014, dated 2019).

Residue numbers refer to the chain shown, from its start. Like-named read-outs stand apart in the source and are kept apart here.

For assay [1], the target named is ALK1 (Homo sapiens, UniProt P37023). As to the kind of experiment: TR-FRET enzymatic ALK kinase assay, ALK1. (In general: Time-resolved FRET reads energy transfer from a long-lived donor to a nearby acceptor.)
Experimental: (§1) Briefly, the ALKs enzymatic assay was initiated by dispense 2.5 μl enzyme in 1× kinase reaction buffer. The assay plate was then added with compounds followed by incubation at room temperature for 10 minutes. Then 2.5 μl/well substrate was added.
For assay [2], the target named is T1, ALK1 (Bos taurus, UniProt A4FUX2).
T1 construct: The BAOEC cell line was employed for the measurement of ALK1 activity using BMP9 as the agonist; host or cells: BAOEC (bovine aortic endothelial cells)
T1 sequence (A4FUX2 23-503): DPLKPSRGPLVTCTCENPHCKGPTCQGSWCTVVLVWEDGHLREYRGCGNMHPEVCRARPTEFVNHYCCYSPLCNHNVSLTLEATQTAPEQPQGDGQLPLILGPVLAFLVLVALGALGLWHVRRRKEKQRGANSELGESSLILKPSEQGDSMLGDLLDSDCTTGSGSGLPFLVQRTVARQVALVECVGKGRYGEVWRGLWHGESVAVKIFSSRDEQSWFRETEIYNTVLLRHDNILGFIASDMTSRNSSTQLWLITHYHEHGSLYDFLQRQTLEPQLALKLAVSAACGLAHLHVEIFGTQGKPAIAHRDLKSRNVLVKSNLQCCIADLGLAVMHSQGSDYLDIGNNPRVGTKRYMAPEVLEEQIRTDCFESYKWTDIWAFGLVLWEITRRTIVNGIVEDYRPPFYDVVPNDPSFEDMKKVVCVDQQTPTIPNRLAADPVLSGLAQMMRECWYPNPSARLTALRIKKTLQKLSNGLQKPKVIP
As to the kind of experiment: HTRF pSMAD1 cell-based ALK1 assay (BAOEC cells, BMP9 as agonist). Set-up: species or system Bovine. On the procedure: 2. HTRF Cell-Based ALK1 and ALK2 Assays in 384-Well Plate Format We have developed a cell based ALK1 kinase assay and a cell-based ALK2 assay. The BAOEC cell line was employed for the measurement of ALK1 activity using BMP9 as the agonist. The C2C12 cell line was selected for the measurement of ALK2 activity using BMP6 as the agonist. The kinase specificity was defined by the specific cell line and agonist. The kinase activity was determined by the status of SMD 1/5/8 phosphorylation stimulated by the agonist.
HyClone Fetal Bovine Serum was obtained from GE healthcare life sciences (Logan, Utah). BMP6 and BMP9 were purchased from R&D System. […] The compound plates and the white solid MB assay plates were purchased from Greiner Bio-one (Monroe, N.C.).
HTRF optimization experiments were performed in 384 well plate format. […] Pre-starved cells were then plated in 384 well plate in the starvation medium (containing in 0.1% FBS). After 4 hours, compounds were added to the assay plate and incubated for 30 minutes. The assay plate was then added with BMP6 for C2C12 cells or BMP9 for BAOEC cells and incubated for 30 minutes.
HTRF assay was performed to measure the status of SMAD 1 phosphorylation after stimulated with the agonist (Table 3). This HTRF phospho SMAD1 cell assay was developed and optimized for the homogenous detection of phospho SMAD 1 levels in cells. […] The plate was incubated at room temperature for overnight.

Assay [3] can be described thus: Cell-based assay, TGFb1 (Cell IC50).
In another assay the target is T2, ALK4 (Homo sapiens, UniProt P36896).
T2 sequence (P36896 24-505): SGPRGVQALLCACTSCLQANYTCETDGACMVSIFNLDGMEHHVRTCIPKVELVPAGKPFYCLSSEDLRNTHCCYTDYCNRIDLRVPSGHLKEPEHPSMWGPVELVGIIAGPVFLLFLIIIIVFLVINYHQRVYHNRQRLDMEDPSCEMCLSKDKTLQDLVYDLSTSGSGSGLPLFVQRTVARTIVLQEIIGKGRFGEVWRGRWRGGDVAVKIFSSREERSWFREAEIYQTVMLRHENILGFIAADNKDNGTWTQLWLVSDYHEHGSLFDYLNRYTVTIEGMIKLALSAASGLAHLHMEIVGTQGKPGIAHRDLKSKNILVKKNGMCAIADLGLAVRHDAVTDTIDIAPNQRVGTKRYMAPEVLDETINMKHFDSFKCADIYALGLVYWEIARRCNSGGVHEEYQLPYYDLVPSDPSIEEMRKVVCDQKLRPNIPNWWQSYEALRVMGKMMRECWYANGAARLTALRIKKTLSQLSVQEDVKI
As to the kind of experiment: TR-FRET enzymatic ALK kinase assay, ALK4.

A further assay addresses T3, ALK5 (Homo sapiens, UniProt P36897).
T3 sequence (P36897 34-503): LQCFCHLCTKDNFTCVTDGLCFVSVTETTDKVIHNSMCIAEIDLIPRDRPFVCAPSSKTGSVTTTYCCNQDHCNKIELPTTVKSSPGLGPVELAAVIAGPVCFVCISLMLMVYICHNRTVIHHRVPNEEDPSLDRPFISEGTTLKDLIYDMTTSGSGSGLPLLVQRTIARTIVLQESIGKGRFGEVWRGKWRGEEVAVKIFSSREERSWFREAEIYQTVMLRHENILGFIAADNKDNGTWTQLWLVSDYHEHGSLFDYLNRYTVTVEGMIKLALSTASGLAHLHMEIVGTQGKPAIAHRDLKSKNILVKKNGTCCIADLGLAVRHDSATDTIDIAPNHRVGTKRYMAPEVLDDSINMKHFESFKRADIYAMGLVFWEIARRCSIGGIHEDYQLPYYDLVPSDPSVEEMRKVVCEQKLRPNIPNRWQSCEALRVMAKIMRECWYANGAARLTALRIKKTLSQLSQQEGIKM
As to the kind of experiment: TR-FRET enzymatic ALK kinase assay, ALK5.

In another assay the target is ALK3 (Homo sapiens, UniProt P36894). As to the kind of experiment: TR-FRET enzymatic ALK kinase assay, ALK3.
The subject of another assay is BMP4. Kind of assay: BMP4 HTRF assay. Type of assay: cell-based.
The target in assay [4] is T4, ALK2 (Homo sapiens, UniProt Q04771).
T4 sequence (Q04771 21-509): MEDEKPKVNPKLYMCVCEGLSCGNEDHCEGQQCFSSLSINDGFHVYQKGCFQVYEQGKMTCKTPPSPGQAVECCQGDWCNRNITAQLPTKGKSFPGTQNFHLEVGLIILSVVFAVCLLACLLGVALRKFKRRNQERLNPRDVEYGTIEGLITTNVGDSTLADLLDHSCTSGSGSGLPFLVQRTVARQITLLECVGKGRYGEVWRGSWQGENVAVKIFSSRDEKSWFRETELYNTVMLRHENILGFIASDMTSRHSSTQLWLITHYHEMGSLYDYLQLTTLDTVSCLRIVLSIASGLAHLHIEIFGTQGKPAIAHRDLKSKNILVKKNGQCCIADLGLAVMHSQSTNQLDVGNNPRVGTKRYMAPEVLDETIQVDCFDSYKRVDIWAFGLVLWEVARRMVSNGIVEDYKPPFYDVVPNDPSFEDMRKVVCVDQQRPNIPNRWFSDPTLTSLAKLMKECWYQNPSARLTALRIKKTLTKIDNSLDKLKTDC
As to the kind of experiment: TR-FRET enzymatic ALK kinase assay, ALK2.
Experimental: as §1

A further assay concerns the target ALK6 (Homo sapiens, UniProt O00238). Kind of assay: TR-FRET enzymatic ALK kinase assay, ALK6.
The target in assay [5] is T5, ALK2 (Mus musculus, UniProt P37172).
T5 construct: The C2C12 cell line was selected for the measurement of ALK2 activity using BMP6 as the agonist; host or cells: C2C12
T5 sequence (P37172 21-509): T4 sequence (Q04771 21-509) with M1V, P10Q, L121I, D162E, P310S
Kind of assay: HTRF pSMAD1 cell-based ALK2 assay (C2C12 cells, BMP6 as agonist). A digest of the protocol: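 Phospho-SMAD1 HTRF readout, detection incubated overnight at room temperature. Before that: starved cells in 0.1% FBS for 4 h, 30 min compound pretreatment, then 30 min agonist, BMP6 on C2C12 or BMP9 on BAOEC.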

Sequence of ALK3 (P36894 24-532): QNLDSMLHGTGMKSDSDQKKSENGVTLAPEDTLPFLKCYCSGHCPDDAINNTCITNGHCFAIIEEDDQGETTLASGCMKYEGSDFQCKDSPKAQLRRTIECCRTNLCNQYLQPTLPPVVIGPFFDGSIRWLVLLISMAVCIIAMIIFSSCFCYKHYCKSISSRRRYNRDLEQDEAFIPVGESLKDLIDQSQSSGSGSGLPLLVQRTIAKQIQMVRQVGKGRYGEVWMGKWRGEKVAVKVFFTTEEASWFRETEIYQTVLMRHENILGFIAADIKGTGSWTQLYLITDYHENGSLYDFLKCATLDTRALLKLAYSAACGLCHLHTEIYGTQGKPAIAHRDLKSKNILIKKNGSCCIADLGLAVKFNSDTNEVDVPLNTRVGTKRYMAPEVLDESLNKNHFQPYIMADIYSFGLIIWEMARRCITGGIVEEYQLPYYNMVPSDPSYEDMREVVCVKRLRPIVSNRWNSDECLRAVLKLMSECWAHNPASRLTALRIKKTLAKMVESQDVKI
Sequence of ALK1 (Homo sapiens, UniProt P37023) (P37023 22-503): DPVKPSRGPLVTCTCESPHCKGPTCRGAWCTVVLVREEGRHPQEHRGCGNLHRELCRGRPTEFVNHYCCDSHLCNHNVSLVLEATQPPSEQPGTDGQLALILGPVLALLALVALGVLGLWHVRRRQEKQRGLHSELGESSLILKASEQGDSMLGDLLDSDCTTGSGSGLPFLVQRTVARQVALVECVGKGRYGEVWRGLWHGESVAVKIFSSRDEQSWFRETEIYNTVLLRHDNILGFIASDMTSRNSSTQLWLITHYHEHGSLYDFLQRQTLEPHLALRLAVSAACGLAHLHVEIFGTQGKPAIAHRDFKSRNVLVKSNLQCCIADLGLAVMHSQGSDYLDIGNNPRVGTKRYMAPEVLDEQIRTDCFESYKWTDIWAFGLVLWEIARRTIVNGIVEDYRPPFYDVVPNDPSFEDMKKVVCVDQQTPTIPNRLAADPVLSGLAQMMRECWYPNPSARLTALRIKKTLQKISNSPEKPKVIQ
Sequence of ALK6 (O00238 14-502): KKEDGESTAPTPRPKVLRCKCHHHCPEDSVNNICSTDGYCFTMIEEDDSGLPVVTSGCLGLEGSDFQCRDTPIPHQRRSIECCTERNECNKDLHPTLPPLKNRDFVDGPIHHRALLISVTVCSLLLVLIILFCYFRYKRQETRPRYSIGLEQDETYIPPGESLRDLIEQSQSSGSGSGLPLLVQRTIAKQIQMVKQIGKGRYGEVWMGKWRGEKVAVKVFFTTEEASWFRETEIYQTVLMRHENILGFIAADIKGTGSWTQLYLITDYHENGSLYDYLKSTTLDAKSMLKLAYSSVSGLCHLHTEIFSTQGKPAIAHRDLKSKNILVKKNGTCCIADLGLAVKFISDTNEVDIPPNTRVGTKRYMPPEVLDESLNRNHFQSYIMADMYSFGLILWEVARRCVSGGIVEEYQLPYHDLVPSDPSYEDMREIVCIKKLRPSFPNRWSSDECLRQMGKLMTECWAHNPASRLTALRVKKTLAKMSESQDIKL
Experimental for ALK3: as §1
Experimental for ALK4: as §1
Experimental for ALK5: Six ALK kinase enzyme assays were developed for determination of compound activities on ALK1, ALK2, ALK3, ALK4, ALK5 and ALK6.
as §1
Experimental for ALK6: as §1

As for `C[C@@H]1CNC[C@H](C)N1c1ccc(-c2cnc3c(-c4ccc(CO)c5ccccc45)cnn3c2)cc1` [Compound 22, (4-(6-(4-((2R,6S)-2,6-dimethylpiperazin-1-yl)phenyl)pyrazolo[1,5-a]pyrimidin-3-yl)naphthalen-1-yl)methanol], the IC50 against ALK1 [1] is 4 nM; on ALK1 [2], 33 nM; in assay [3] it was 243 nM; against ALK4 it was 1360 nM; against ALK5, 4.66 µM; against ALK3, 34 nM. The IC50 in the assay with BMP4 is 820 nM; at ALK2 [4] it was 9.7 nM; against ALK6, 647 nM; at ALK2 [5] (HTRF assay, BMP6 as agonist, C2C12 cells, read-out: BMP6 HTRF) it was 47 nM; on ALK2 [5] (cell-based assay, BMP6, read-out: Cell IC50 BMP6), 2 nM.
